Results on 27 compounds are retold here after patent US20180327355A1, “ISOINDOLINE DERIVATIVES” (priority 2015, published 2018).

The subject of the first assay is HIV. In words: MT4 assay (anti-HIV activity). In kind it is cell-based. Particulars: 96 h. On the procedure:
Antiviral HIV activity and cytotoxicity values for compounds of the invention from Table 1 were measured in parallel in the HTLV-1 transformed cell line MT-4 based on the method previously described (Hazen et al., 2007, In vitro antiviral activity of the novel, tyrosyl-based human immunodeficiency virus (HIV) type 1 protease inhibitor brecanavir (GW640385) in combination with other antiretrovirals and against a panel of protease inhibitor-resistant HIV (Hazen et al., “In vitro antiviral activity of the novel, tyrosyl-based human immunodeficiency virus (HIV) type 1 protease inhibitor brecanavir (GW640385) in combination with other antiretrovirals and against a panel of protease inhibitor-resistant HIV”, Antimicrob. Agents Chemother. 2007, 51: 3147-3154; and Pauwels et al., “Sensitive and rapid assay on MT-4 cells for the detection of antiviral compounds against the AIDS virus”, J. of Virological Methods 1987, 16: 171-185).
Luciferase activity was measured 96 hours later by adding a cell titer glo (Promega, Madison, Wis.). Percent inhibition of cell protection data was plotted relative to no compound control. Under the same condition, cytotoxicity of the compounds was determined using cell titer Glo™ (Promega, Madison, Wis). ICsos were determined from a 10 point dose response curve using 3-4-fold serial dilution for each compound, which spans a concentration range >1000 fold.
These values are plotted against the molar compound concentrations using the standard four parameter logistic equation:
y=((Vmax*x̂n)/(K̂n+x̂n))+Y2
Y2=minimum y n=slope factor
Vmax=maximum y x=compound concentration [M]
Regarding `C/C(=C(/C)c1c(C)c2c(c(C)c1[C@H](OC(C)(C)C)C(=O)O)CN(C(=O)c1cccc(F)c1)C2)c1ccccc1` [Example 23, (S,E)-2-(tert-butoxy)-2-(2-(3-fluorobenzoyl)-4,7-dimethyl-6-(3-phenylbut-2-en-2-yl)isoindolin-5-yl)acetic acid], the 50% inhibitory concentration (IC50) (in general, the concentration that gives 50% inhibition) was determined as 0.044 µM.

The assay is the same for the next values; noted with them: MT4 assay, HTLV-1 transformed cell line MT-4, readout 96 hours, cell titer glo; read-out: IC50.
Consider `Cc1ccc(C(=O)Nc2c(C)c3c(c(C)c2[C@H](OC(C)(C)C)C(=O)O)CN(C(=O)c2cccc(F)c2)C3)cc1` [Example 8, (S)-2-(tert-butoxy)-2-(2-(3-fluorobenzoyl)-4,7-dimethyl-6-(4-methylbenzamido)isoindolin-5-yl)acetic acid], for which the IC50 was found to be 50 µM.

As to `C/C(=C\c1c(C)c2c(c(C)c1[C@H](OC(C)(C)C)C(=O)O)CN(C(=O)c1cccc(F)c1)C2)c1ccccc1` [Example 21, (S,E)-2-(tert-butoxy)-2-(2-(3-fluorobenzoyl)-4,7-dimethyl-6-(2-phenylprop-1-en-1-yl)isoindolin-5-yl)acetic acid], the IC50 is 0.103 µM.

As for `Cc1c2c(c(C)c([C@H](OC(C)(C)C)C(=O)O)c1NC(=O)c1ccccc1)CN(C(=O)c1cccc(F)c1)C2` [Example 10, (S)-2-(6-benzamido-2-(3-fluorobenzoyl)-4,7-dimethylisoindolin-5-yl)-2-(tert-butoxy)acetic acid], the IC50 was 4.1 µM.

Regarding `Cc1c(/C=C\c2ccccc2)c([C@H](OC(C)(C)C)C(=O)O)c(C)c2c1CN(C(=O)c1cccc(F)c1)C2` [Example 27, (S,Z)-2-(tert-butoxy)-2-(2-(3-fluorobenzoyl)-4,7-dimethyl-6-styrylisoindolin-5-yl)acetic acid], the IC50 worked out at 0.868 µM.

Take `Cc1c(C#Cc2ccccc2)c([C@H](OC(C)(C)C)C(=O)O)c(C)c2c1CN(C(=O)c1cccc(F)c1)C2` [Example 1, (S)-2-(tert-butoxy)-2-(2-(3-fluorobenzoyl)-4,7-dimethyl-6-(phenylethynyl)isoindolin-5-yl)acetic acid]: the IC50 came to 1.03 µM.

On to `Cc1c2c(c(C)c([C@H](OC(C)(C)C)C(=O)O)c1CC(=O)NCC(C)(C)C)CN(C(=O)c1cccc(F)c1)C2` [Example 7, (S)-2-(tert-butoxy)-2-(2-(3-fluorobenzoyl)-4,7-dimethyl-6-(2-(neopentylamino)-2-oxoethyl)isoindolin-5-yl)acetic acid], for which the IC50 turned out to be 38 µM.

As for `Cc1c2c(c(C)c([C@H](OC(C)(C)C)C(=O)O)c1NC(=O)CC1CCCCC1)CN(C(=O)c1cccc(F)c1)C2` [Example 9, (S)-2-(tert-butoxy)-2-(6-(2-cyclohexylacetamido)-2-(3-fluorobenzoyl)-4,7-dimethylisoindolin-5-yl)acetic acid], the IC50 was determined as 50 µM.

Regarding `Cc1c2c(c(C)c([C@H](OC(C)(C)C)C(=O)O)c1CC(=O)NC1CCCCC1)CN(C(=O)c1cccc(F)c1)C2` [Example 5, (S)-2-(tert-butoxy)-2-(6-(2-(cyclohexylamino)-2-oxoethyl)-2-(3-fluorobenzoyl)-4,7-dimethylisoindolin-5-yl)acetic acid], the IC50 is 50 µM.

For the compound `Cc1c2c(c(C)c([C@H](OC(C)(C)C)C(=O)O)c1CC(=O)N1CCCCC1)CN(C(=O)c1cccc(F)c1)C2` [Example 4, (S)-2-(tert-butoxy)-2-(2-(3-fluorobenzoyl)-4,7-dimethyl-6-(2-oxo-2-(piperidin-1-yl)ethyl)isoindolin-5-yl)acetic acid], the IC50 came out at 10.2 µM.

Regarding `Cc1c2c(c(C)c([C@H](OC(C)(C)C)C(=O)O)c1Cc1ccccc1)CN(C(=O)c1cccc(F)c1)C2` [Example 3, (S)-2-(6-benzyl-2-(3-fluorobenzoyl)-4,7-dimethylisoindolin-5-yl)-2-(tert-butoxy)acetic acid], the IC50 was 0.651 µM.

On to `C/C(=C\c1cc(F)c2c(c1C)CCCO2)c1c(C)c2c(c(C)c1[C@H](OC(C)(C)C)C(=O)O)CN(C(=O)c1cccc(F)c1)C2` [Example 24, (S,E)-2-(tert-butoxy)-2-(6-(1-(8-fluoro-5-methylchroman-6-yl)prop-1-en-2-yl)-2-(3-fluorobenzoyl)-4,7-dimethylisoindolin-5-yl)acetic acid], for which the IC50 came to 50 µM.

Consider `Cc1c(/C=C/CC(C)(C)C)c([C@H](OC(C)(C)C)C(=O)O)c(C)c2c1CN(C(=O)c1cccc(F)c1)C2` [Example 16, (S,E)-2-(tert-butoxy)-2-(6-(4,4-dimethylpent-1-en-1-yl)-2-(3-fluorobenzoyl)-4,7-dimethylisoindolin-5-yl)acetic acid], for which the IC50 stood at 0.12 µM.

As for `Cc1c2c(c(C)c(N(C)C(=O)CC3CCCCC3)c1[C@H](OC(C)(C)C)C(=O)O)CN(C(=O)c1cccc(F)c1)C2` [Example 13, (S)-2-(tert-butoxy)-2-(6-(2-cyclohexyl-N-methylacetamido)-2-(3-fluorobenzoyl)-4,7-dimethylisoindolin-5-yl)acetic acid], the IC50 was determined as 44.6 µM.

As for `Cc1c2c(c(C)c([C@H](OC(C)(C)C)C(=O)O)c1CCc1ccccc1)CN(C(=O)c1cccc(F)c1)C2` [Example 18, (S)-2-(tert-butoxy)-2-(2-(3-fluorobenzoyl)-4,7-dimethyl-6-phenethylisoindolin-5-yl)acetic acid], the IC50 stood at 1.09 µM.

As to `Cc1ccc(C(=O)N(C)c2c(C)c3c(c(C)c2[C@H](OC(C)(C)C)C(=O)O)CN(C(=O)c2cccc(F)c2)C3)cc1` [Example 12, (S)-2-(tert-butoxy)-2-(6-(N,4-dimethylbenzamido)-2-(3-fluorobenzoyl)-4,7-dimethylisoindolin-5-yl)acetic acid], the IC50 is 33.9 µM.

`Cc1c(/C=C/c2ccccc2)c([C@H](OC(C)(C)C)C(=O)O)c(C)c2c1CN(C(=O)c1cccc(F)c1)C2` [Example 17, (S,E)-2-(tert-butoxy)-2-(2-(3-fluorobenzoyl)-4,7-dimethyl-6-styrylisoindolin-5-yl)acetic acid]: the IC50 came to 0.124 µM.

With `Cc1c(/C=C/c2ccc3c(c2)CCCO3)c([C@H](OC(C)(C)C)C(=O)O)c(C)c2c1CN(C(=O)c1cccc(F)c1)C2` [Example 25, (S,E)-2-(tert-butoxy)-2-(6-(2-(chroman-6-yl)vinyl)-2-(3-fluorobenzoyl)-4,7-dimethylisoindolin-5-yl)acetic acid], the IC50 came to 33.9 µM.

`Cc1c(/C=C/C2CCCCC2)c([C@H](OC(C)(C)C)C(=O)O)c(C)c2c1CN(C(=O)c1cccc(F)c1)C2` [Example 14, (S,E)-2-(tert-butoxy)-2-(6-(2-cyclohexylvinyl)-2-(3-fluorobenzoyl)-4,7-dimethylisoindolin-5-yl)acetic acid]: the IC50 stood at 0.086 µM.

For the compound `C#Cc1c(C)c2c(c(C)c1[C@H](OC(C)(C)C)C(=O)O)CN(C(=O)c1cccc(F)c1)C2` [Example 2, (S)-2-(tert-butoxy)-2-(6-ethynyl-2-(3-fluorobenzoyl)-4,7-dimethylisoindolin-5-yl)acetic acid], the IC50 stood at 3.68 µM.

Consider `Cc1c2c(c(C)c([C@H](OC(C)(C)C)C(=O)O)c1CC(=O)Nc1ccccc1)CN(C(=O)c1cccc(F)c1)C2` [Example 6, (S)-2-(tert-butoxy)-2-(2-(3-fluorobenzoyl)-4,7-dimethyl-6-(2-oxo-2-(phenylamino)ethyl)isoindolin-5-yl)acetic acid], for which the IC50 was 9.63 µM.

For `Cc1c(/C=C/C2CCOCC2)c([C@H](OC(C)(C)C)C(=O)O)c(C)c2c1CN(C(=O)c1cccc(F)c1)C2` [Example 15, (S,E)-2-(tert-butoxy)-2-(2-(3-fluorobenzoyl)-4,7-dimethyl-6-(2-(tetrahydro-2H-pran-4-yl)vinyl)isoindolin-5-yl)acetic acid], the IC50 stood at 1.31 µM.

Consider `Cc1ccc(CCc2c(C)c3c(c(C)c2[C@H](OC(C)(C)C)C(=O)O)CN(C(=O)c2cccc(F)c2)C3)cc1` [Example 20, (S)-2-(tert-butoxy)-2-(2-(3-fluorobenzoyl)-4,7-dimethyl-6-(4-methylphenethyl)isoindolin-5-yl)acetic acid], for which the half-maximal inhibitory concentration (IC50) was determined as 50 µM.

Turning to `Cc1ccc(/C=C/c2c(C)c3c(c(C)c2[C@H](OC(C)(C)C)C(=O)O)CN(C(=O)c2cccc(F)c2)C3)cc1` [Example 19, (S,E)-2-(tert-butoxy)-2-(2-(3-fluorobenzoyl)-4,7-dimethyl-6-(4-methylstyryl)isoindolin-5-yl)acetic acid], the IC50 turned out to be 50 µM.

As for `Cc1c(/C=C/c2cc(F)c3c(c2C)CCCO3)c([C@H](OC(C)(C)C)C(=O)O)c(C)c2c1CN(C(=O)c1cccc(F)c1)C2` [Example 26], the IC50 turned out to be 50 µM.

Turning to `C/C(=C\c1ccccc1)c1c(C)c2c(c(C)c1[C@H](OC(C)(C)C)C(=O)O)CN(C(=O)c1cccc(F)c1)C2` [Example 22, (S,E)-2-(tert-butoxy)-2-(2-(3-fluorobenzoyl)-4,7-dimethyl-6-(1-phenylprop-1-en-2-yl)isoindolin-5-yl)acetic acid], the IC50 amounted to 0.039 µM.

For `Cc1c2c(c(C)c([C@H](OC(C)(C)C)C(=O)O)c1NC(=O)N1CCCCC1)CN(C(=O)c1cccc(F)c1)C2` [Example 11, (S)-2-(tert-butoxy)-2-(2-(3-fluorobenzoyl)-4,7-dimethyl-6-(piperidine-1-carboxamido)isoindolin-5-yl)acetic acid], the IC50 turned out to be 3.12 µM.
